Entries after “also recorded” stand apart in the source; their conditions may differ. Like-named read-outs stand apart in the source and are kept apart here.
Columns and labels:
[1] = target: T1, apo riboflavin binding protein from eggs (Gallus gallus, UniProt P02752); assay: Titration of antibiotic with egg riboflavin binding protein; dissociation constant; parameters: species or system chicken
T1 construct: obtained in homogeneous form from chicken egg white; from tissue; host or cells: chicken egg white
T1 sequence (P02752 18-238): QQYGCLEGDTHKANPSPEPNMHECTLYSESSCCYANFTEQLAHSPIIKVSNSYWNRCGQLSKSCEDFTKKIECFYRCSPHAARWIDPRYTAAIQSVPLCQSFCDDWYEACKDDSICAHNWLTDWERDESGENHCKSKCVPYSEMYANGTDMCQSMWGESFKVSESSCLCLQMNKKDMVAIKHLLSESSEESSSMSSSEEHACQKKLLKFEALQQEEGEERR
Experimental: The purified protein may be stored, for example, frozen at -20° C. in 10 mM potassium phosphate, 1 mM EDTA pH 7.0 buffer, at concentrations between about 1 and 10 mM.
A working solution of adriamycin was obtained by dissolution in warm 0.035M potassium phosphate pH 7.0 buffer containing 0.15M NaCl and 0.5 mM EDTA and cooled to ambient temperature (24±2° C.). To a 3.0 mL solution containing 3 μM adriamycin was added 5.0 μL increments of a 0.49 mM binding protein solution in 10 mM potassium phosphate, 1 mM EDTA pH 7.0 buffer.
Daunomycin was dissolved in warm buffer, followed by cooling. […] AD-32 was dissolved in dimethylformamide.
The binding protein affinity of three anthracyclinones was determined: (±)-aklavinone, 7-deoxydaunomycinone and iso-7-deoxydaunomycinone. Aklavinone and 7-deoxydaunomycinone were made as concentrated solutions in dimethylformamide, and the solution concentrations determined by dilution into alcohol. Leuco iso-7-deoxydaunomycinone was dissolved in dimethylformamide and diluted into buffer. The general procedure of Example 1 was followed.
Solutions were prepared and admixed as previously described.

[2] = target: T1, apo riboflavin binding protein from eggs; assay: Anaerobic dithionite redox titration of the daunomycin-binding protein complex; parameters: species or system chicken
Description: A further use of the antibiotic-protein complex is in redox titrations. Aqueous redox titrations of anthracyclines cannot be done. Although anthracycline glycosides are water soluble, loss of the glycoside (with its positive charge) provides the almost completely water insoluble 7-deoxyanthracyclinones. Unfortunately, glycoside loss is an integral aspect of anthracycline redox chemistry. The binding protein-anthracyclinecomplex has been used for anaerobic aqueous redox titrations. Dithionite reduction of the anthracycline glycoside provides, in a 2e^- process, the 7-deoxyanthracyclinone, via reductive elimination. The bound 7-deoxyanthracyclinone is then further 2e^- reduced to the bound hydroquinone. Semi-quinone radical intermediates are observed transiently; these are stable neither in solution nor complexed to the binding protein. Oxidation of the hydroquinone is accomplished by several reagents (oxygen, hydrogen peroxide, ferricyanide, cytochrome c). In the case of 7-deoxydaunomycinone hydroquinone, a mixture of two products is produced upon oxidation; these are the chromo 7-deoxydaunomycinone (identical to the first 2e^- reduction intermediate) and its leuco isomer, 8-acetyl-7,8,9,10-tetrahydro-5,8,12-trihydroxy-1-methoxy-6,11-napthacenedione(iso-7-deoxydaunomycinone).
An anaerobic redox titration of the daunomycin-binding protein complex was done. […]

[3] = Stability of free and binding protein-complexed compound (isomerization, light, storage); type: physicochemical
Description: Also of interest is the high affinity of the binding protein for iso-7-deoxydaunomycinone(8-acetyl-7,8,9,10-tetrahydro-5,8,12-trihydroxy-1- methoxy-6,11-napthacenedione). This compound is a kinetic product of 7-deoxydaunomycinone hydroquinone oxidation.
An anaerobic redox titration of the daunomycin-binding protein complex was done. The reducing agent used was dithionite anion. Spectrophotometric titrations were made on a Cary 219 spectrophotometer. Anaerobic titrations were done with gas tight syringes, with the deoxygenated solutions maintained under a positive pressure of O2 -free nitrogen. Dithionite was freshly prepared in O2 -free buffer and standardized by anaerobic riboflavin titration. Equilibration with dithionite is in all instances complete in seconds. […] Assignment of structure to this titration intermediate was confirmed by its isolation, and chromatographic comparison with an authentic sample. Further dithionite addition reduces the bound 7-deoxydaunomycinone to a new chromophore (λmax =407 nm). The hydroquinone is not further reduced, but is very easily oxidized upon mixing with oxidants such as oxygen, hydrogen peroxide, ferricyanide and cytochrome c. The absorption spectrum obtained following complete oxygen oxidation of the hydroquinone is different than any previous spectrum. Longer wavelength features, indicating the presence of 7-deoxydaunomycinone, are seen but a new chromophore (λmax approximately 445 nm) is also present. The structure of the compound corresponding to this chromophore is iso-7-deoxydaunomycinone on the basis of its spectroscopic data. In neutral aqueous buffer in the absence of the binding protein this compound promptly isomerizes to 7-deoxydaunomycinone (k=6×10^-4 s^-1). […] Binding protein stabilization is also reflected in an estimated 10-fold slower rate of dithionite reduction of the iso-7-deoxydaunomycinone compared to either 7-deoxydaunomycinone or daunomycin.

[4] = general procedure of Example 1, read-out: Kd (anthracycline glycosides, Examples 2-7)
[5] = general procedure of Example 1, read-out: Kd (anthracyclinones, Examples 8-10)
[6] = spectrophotometric, solutions prepared and admixed as previously described, read-out: Kd (anthraquinones and anthraquinone-like molecules, Examples 11-15)

Compound	Kd [1] [µM]	binding to the binding protein (in words) [1]	further results
CC[C@@]1(O)C[C@H](O)c2c(cc3c(c2O)C(=O)c2c(O)cccc2C3=O)[C@H]1C(=O)OC (relative stereo) [(±)-Aklavinone]	0.02	both enantiomers of the racemic aklavinone (7S, 9R, 10R, and 7R, 9S, 10S) are equally well bound	–
CC(=O)[C@]1(O)Cc2c(O)c3c(c(O)c2[C@@H](O[C@H]2C[C@H](N)[C@H](O)[C@H](C)O2)C1)C(=O)c1ccccc1C3=O [4-Demethoxydaunomycin]	–	bind with an affinity hardly different than that of adriamycin	Kd [1, 4]: 0.3 µM
CC(=O)[C@@]1(O)Cc2c(O)c3c(c(O)c2[C@H](O[C@H]2C[C@H](N)[C@H](O)[C@H](C)O2)C1)C(=O)c1ccccc1C3=O [7,9-Diepi-4-demethoxydaunomycin]	–	binds most tightly of all	Kd [1, 4]: 0.08 µM
COc1cccc2c1C(=O)c1c(O)c3c(c(O)c1C2=O)C[C@@](O)(C(C)=O)CC3 [7-Deoxydaunomycinone]	–	–	Kd [1, 5]: 0.08 µM
CCCCC(=O)OCC(=O)[C@]1(O)Cc2c(O)c3c(c(O)c2[C@@H](O[C@H]2C[C@H](NC(=O)C(F)(F)F)[C@H](O)[C@H](C)O2)C1)C(=O)c1c(OC)cccc1C3=O [AD-32, N-trifluoroacetyl-14-valeryl-adriamycin]	–	binds well; also recorded: tight binding	formation of AD-32-binding protein complex ([1]; concentrated DMF solution added to slight molar excess of apo protein, approximately 20 μM each): quantitative formation of the AD-32-binding protein complex
CC[C@@]1(O)C[C@H](O[C@H]2C[C@H](N(C)C)[C@H](O[C@H]3C[C@H](O)[C@H](O[C@H]4CCC(=O)[C@H](C)O4)[C@H](C)O3)[C@H](C)O2)c2c(cc3c(c2O)C(=O)c2c(O)cccc2C3=O)[C@H]1C(=O)OC [Aclacinomycin A]	1	bind with an affinity hardly different than that of adriamycin	binding to the binding protein (in words) ([1]; listed as aclacinomycin A): tight binding
COc1cccc2c1C(=O)c1c(O)c3c(c(O)c1C2=O)C[C@@](O)(C(=O)CO)C[C@@H]3O[C@H]1C[C@H](N)[C@H](O)[C@H](C)O1 [Adriamycin]	0.5 ± 0.1	good binding	–
Cc1c(C(=O)O)c(O)cc2c1C(=O)c1c(O)c([C@@H]3O[C@H](CO)[C@@H](O)[C@H](O)[C@H]3O)c(O)c(O)c1C2=O [Carminic acid]	–	neither tetracycline nor carminic acid (an insect feeding deterrent) bind	Kd [1, 6]: > 250 µM
CN(C)CCCN1c2ccccc2Sc2ccc(Cl)cc21 [Chlorpromazine]	–	high affinity	Kd [1, 6]: ~1 µM
O=C1c2c(O)ccc(O)c2C(=O)c2c(NCCNCCO)ccc(NCCNCCO)c21 [DHAQ, 1,4-dihydroxy-5,8-bis[[2-(hydroxyethyl)amino]ethyl]-9. 10-anthracenedione]	–	bound weakly	Kd [1, 6]: 60 µM
COc1cccc2c1C(=O)c1c(O)c3c(c(O)c1C2=O)C[C@@](O)(C(C)=O)C[C@@H]3O[C@H]1C[C@H](N)[C@H](O)[C@H](C)O1 [Daunomycin]	0.4	bind with an affinity hardly different than that of adriamycin	redox behaviour in titration (in words) ([2]; anaerobic, dithionite, oxidation by oxygen, hydrogen peroxide, ferricyanide, cytochrome c): first converted in a 2e^- process to 7-deoxydaunomycinone, with reductive elimination of the glycoside
COc1cccc2c(O)c3c(c(O)c12)C(=O)C1=C(C[C@@](O)(C(C)=O)CC1)C3=O [Iso-7-deoxydaunomycinone, 8-acetyl-7,8,9,10-tetrahydro-5,8,12-trihydroxy-1-methoxy-6,11-napthacenedione]	–	high affinity; also recorded: preferentially bound by the riboflavin binding protein	Kd [1, 5]: 0.02 µM; stability (in words) ([3]; complexed to the binding protein): stable in organic solvents and when complexed to the binding protein; also recorded: stable for days; stability (in words) ([3]; free compound, aqueous buffer or organic solvents): not stable in aqueous buffer to isomerization to 7-deoxydaunomycinone; also recorded: stable in organic solvents; rate constant k of isomerization to 7-deoxydaunomycinone ([3]; neutral aqueous buffer, absence of the binding protein): 0.0006 s⁻¹; slower rate of dithionite reduction compared to either 7-deoxydaunomycinone or daunomycin ([2]; binding protein stabilization, estimated): ~10 fold
COC(=O)[C@@H]1c2cc3c(c(O)c2[C@@H](O[C@@H]2O[C@@H](C)[C@H](OC)[C@@](C)(OC)[C@H]2OC)C[C@]1(C)O)C(=O)c1c(O)cc2c(c1C3=O)O[C@@H]1O[C@@]2(C)[C@H](O)[C@@H](N(C)C)[C@@H]1O [Nogalomycin]	–	All save nogalomycin bind	Kd [1, 4]: > 1000 µM
CCN(CC)CCCC(C)Nc1c2ccc(Cl)cc2nc2ccc(OC)cc12 (centres unmarked) [Quinacrine]	–	high affinity	–
CN(C)[C@@H]1C(=O)C(C(N)=O)=C(O)[C@@]2(O)C(=O)C3=C(O)c4c(O)cccc4[C@@](C)(O)[C@H]3C[C@@H]12 [Tetracycline]	> 250	neither tetracycline nor carminic acid (an insect feeding deterrent) bind	–
Cc1cc2nc3c(=O)[nH]c(=O)nc-3n(C[C@H](O)[C@H](O)[C@H](O)CO)c2cc1C [riboflavin]	–	no compound is more tightly bound by the egg binding protein than riboflavin	–

Reference: US4534971A, “Complexation of anthracycline and anthraquinone antibiotics by the apo riboflavin binding protein from eggs” (Regents of the University of Minnesota, priority 1982, dated 1985)
